Laboratory results from patent publication US4055640A, “Compositions and methods for controlling the growth of bacteria, fungi and algae using certain derivatives of N-(2,2-dichlorovinyl)salicylamides” (Nippon Kayaku Co., Ltd., priority 1975, dated 1977).

Key:
[1] = system: Aspergillus niger, Penicillium citrinum, Cladosporium harbarum and chaetomium globosum; test: Degree of growth inhibition of fungi on treated beach plates (Example 25); format: cell-based; design: scale not given here; conditions: numerical rating, 2 weeks
Description: The emulsifiable concentrates which were prepared by Example 20 were diluted with water 400 times and 800 times to form emulsions.
(§1) The square plates of beach of which a side was 5 cm long and thickness was 5 mm were dipped into the emulsion for 2 minutes and dried for 24 hours at room temperature.
(§2) The square plates were placed on the surface of agar plates. The suspensions which contained spores of Aspergillus niger, Penicillium citrinum, Cladosporium harbarum and chaetomium globosum were respectively sprayed on the agar plates and the square plates.
The test fungi were cultivated in the incubator at the humidity of 95% and the temperature of 28° C for 2 weeks. The degree of growth inhibition is defined in terms of the following numerical ratings.

[2] = system: seedling blight of rice plant (pathogen Fusarium sp. and Rhizoctonia sp.); test: Exterminating test on seedling blight of rice plant (Experimental Example 1); format: in vivo; conditions: 0.25g/box a.i., 5% dust mixed with soil
Description: Exterminating test on seedling blight of rice plant Nursery boxes (60 × 30 × 3 cm) were filled with soil which were contaminated with pathogen (Fusarium sp. and Rhizoctonia sp.) The dust in which the present compound was contained in a ratio of 5% by weight was added in the box in a ratio of 5 grams per box and mixed well with soil. Thereafter, seeds of rice plant (variety: Nihonbare) were sowed in drills at a rate of 0.3 liter per box and grown up in a lighting chamber at 17° C. After 7 days from the sowing, the boxes were carried out in the field. Furthermore, 10 days thereafter the observations were made. Four percent (4%) dust of 3-hydroxy-5-methyl isoxazol (hereinafter referred to as hydroxyisoxazol) on the market was used as a control and tested by the same method. The test results are shown in Table 2 with a "percentage of healthy seedlings". The percentage of healthy seedlings was calculated as follows: […]

[3] = system: Rhizoctonia solani (damping-off of cucumber); test: Exterminating test on damping-off of cucumber (Experimental Example 3); format: in vivo; conditions: 1,000 ppm, soil drench 50 ml per pot, 10 days
Description: Exterminating test on damping-off of cucumber
The pots (diameter, 12 cm) were filled with field soil and then soil infected by adding Rhizoctonia solani in an amount of 5 grams per pot uniformly into the pots. Thereafter, 10 seeds of cucumber (variety: Azumamidori) were sown in each pot.
Eighty percent (80%) wettable powder of the present invention was diluted with water to obtain a suspension and each pot was drenched with the suspension in an amount of 50 milliliters. Then, the pots were transferred to the greenhouse. Fifty percent (50%) wettable powder of pentachloronitro benzene (hereinafter referred to as PCNB) on the market was used as a control and tested by the same method. After 10 days of the inoculation, degrees attacked by the pathogen were observed and a "Percentage of healthy seedlings" was calculated. The "Percentage of healthy seedlings" was calculated as follows: [formula]

[4] = system: Xanthomonas citri (citrus canker); test: Exterminating test on citrus canker (Experimental Example 6); format: in vivo; conditions: 1,000 ppm, 2 weeks after inoculation
Description: (§3) Exterminating test on citrus canker. 4-year-old summer orange seedlings, planted in unglazed pots having a diameter of 20 cm, were employed in this test. Eighty percent (80%) wettable powder of the present invention was diluted with water, and sprayed over the seedlings in an amount of 50 ml per pot. The leaves of the seedlings were inoculated Xanthomonas citri by means of a needle. After the inoculation, the seedlings were maintained in a moist chamber at 25° C for 24 hours. Then the pots were transferred into the greenhouse. Streptomycin 20% wettable powder was used as a control, and tested by the same method. After 2 weeks after the inoculation, degrees of disease attack were observed, and an "Effect Index" was calculated as follows: [formula]

Staphylococcus aureus [5] = test: Minimum inhibitory amount, dilution methods (Example 24); format: cell-based; conditions: (2) glucose bouillon medium dilution method
Source text: (§4) Bactericidal activity and fungicidal activity of the active compounds of the present invention were examined by potato-dextrose agar dilution method, or [2] glucose bouillon medium dilution method. The results are shown in Table 10 below as the minimum inhibitory concentration (the minimum concentration of active compound found to produce 100% control of the test bacteria and fungi).

Aspergillus niger [6] = test: as above; format: cell-based; conditions: (1) potato-dextrose agar dilution method
Source text: as §4

Penicillium Citrinum [7] = test: as above; format: cell-based; conditions: (1) potato-dextrose agar dilution method
Source text: as §4

Bacillus subtilis [8] = test: as above; format: cell-based; conditions: (2) glucose bouillon medium dilution method
Source text: as §4

Cladosporium harbarum [9] = test: as above; format: cell-based; conditions: (1) potato-dextrose agar dilution method
Source text: as §4

Escherichia coli [10] = test: as above; format: cell-based; conditions: (2) glucose bouillon medium dilution method
Source text: as §4

[11] = system: Fusarium wilt of cucumber; test: Exterminating test on Fusarium wilt of cucumber (Experimental Example 4); format: in vivo, Fusarium oxysporum f, cucumerinum; conditions: 500 ppm, soil drench 100 ml per pot, two weeks
Description: Exterminating test on Fusarium wilt of cucumber Twenty (20) grams of infected soil was added uniformly into each pot which was filled with steam sterilized field soil, then 18 seeds of cucumber (variety; Tokiwazibai) were sowed in each pot. Eighty percent (80%) wettable powder of the present invention was diluted with water to obtain a suspension, and each pot was drenched with the suspension in an amount of 100 ml. Fifty percent (50%) wettable powder of methyl-1-(butylcarbamoyl) 2-benzimidazol carbamate (hereinafter referred to as Benlate) on the market was used as a control and tested by the same method. After two weeks of planting, degrees attacked by the pathogen was observed and a "percentage of healthy seedlings" was calculated as follows: [formula]

summer orange seedlings = test: Phytotoxicity on summer orange seedlings (Experimental Example 6); format: in vivo; conditions: 1,000 ppm
Description: as §3

[12] = system: Aspergillus niger, Penicillium citrinum, Cladosporium harbarum and chaetomium globosum; test: Degree of growth inhibition of fungi on treated beach plates (Example 17); format: cell-based; design: scale not given here; conditions: numerical rating, 2 weeks
Description: The emulsifiable concentrates which were prepared by Example 10 were diluted with water 400 times and 800 times to form emulsions.
as §1, §2
The test fungi were cultivated in the incubator at the humidity of 95% and the temperature of 28° C for 2 weeks.
The degree of growth inhibition is defined in terms of the following numerical ratings.

Staphylococcus aureus [13] = test: Minimum inhibitory concentration, dilution methods (Example 14); format: cell-based; conditions: (3) glucose bouillon medium dilution method
Source text: as §4, with “Bacteriocidal activity” for “Bactericidal activity”, “method, [2] waxman's liquid medium dilution method” for “method,”, “or [3]” for “or [2]”, “Table 4” for “Table 10”

Aspergillus niger [14] = test: as above; format: cell-based; conditions: (1) potato-dextrose agar dilution method
Source text: as §4, with “Bacteriocidal activity” for “Bactericidal activity”, “method, [2] waxman's liquid medium dilution method” for “method,”, “or [3]” for “or [2]”, “Table 4” for “Table 10”

Penicillium Citrinum [15] = test: as above; format: cell-based; conditions: (1) potato-dextrose agar dilution method
Source text: as §4, with “Bacteriocidal activity” for “Bactericidal activity”, “method, [2] waxman's liquid medium dilution method” for “method,”, “or [3]” for “or [2]”, “Table 4” for “Table 10”

Bacillus subtilis [16] = test: as above; format: cell-based; conditions: (3) glucose bouillon medium dilution method
Source text: as §4, with “Bacteriocidal activity” for “Bactericidal activity”, “method, [2] waxman's liquid medium dilution method” for “method,”, “or [3]” for “or [2]”, “Table 4” for “Table 10”

Cladosporium harbarum [17] = test: as above; format: cell-based; conditions: (1) potato-dextrose agar dilution method
Source text: as §4, with “Bacteriocidal activity” for “Bactericidal activity”, “method, [2] waxman's liquid medium dilution method” for “method,”, “or [3]” for “or [2]”, “Table 4” for “Table 10”

Escherichia coli [18] = test: as above; format: cell-based; conditions: (3) glucose bouillon medium dilution method
Source text: as §4, with “Bacteriocidal activity” for “Bactericidal activity”, “method, [2] waxman's liquid medium dilution method” for “method,”, “or [3]” for “or [2]”, “Table 4” for “Table 10”

Q: `O=C(NC=C(Cl)Cl)c1cc(Br)ccc1[O-].O=C(NC=C(Cl)Cl)c1cc(Br)ccc1[O-].[Mn+2]` [compound 29] was tested. Which “Degree of growth inhibition” value ([1]; 0.0125 %) did it give?
A: The value was 2.

Q: What about the “Degree of growth inhibition” value ([1]; 0.025 %) of the same molecule?
A: The value was 3.

Q: And the “Percentage of healthy seedlings” value [2]?
A: The value was 69.8%.

Q: And the “Percentage of healthy seedlings” value [3]?
A: The value was 55%.

Q: And the “Effect Index” value [4]?
A: The value was 56.2.

Q: And the Minimum inhibitory amount (Staphylococcus aureus [5])?
A: Its Minimum inhibitory amount is 10 µg/mL.

Q: What about the Minimum inhibitory amount (Aspergillus niger [6]) of the same molecule?
A: The Minimum inhibitory amount was 20 µg/mL.

Q: And the Minimum inhibitory amount (Penicillium Citrinum [7])?
A: The Minimum inhibitory amount was 20 µg/mL.

Q: What about the Minimum inhibitory amount (Bacillus subtilis [8]) of the same molecule?
A: Its Minimum inhibitory amount is 5 µg/mL.

Q: What about the Minimum inhibitory amount (Cladosporium harbarum [9]) of the same molecule?
A: Its Minimum inhibitory amount is 10 µg/mL.

Q: And the Minimum inhibitory amount (Escherichia coli [10])?
A: The Minimum inhibitory amount was 60 µg/mL.

Q: And the “Percentage of healthy seedlings” value [11]?
A: Its value is 57.5%.

Q: What about the Phytotoxicity (summer orange seedlings) of the same molecule?
A: The Phytotoxicity was “Nil”.

Q: `O=C(NC=C(Cl)Cl)c1ccccc1[O-].O=C(NC=C(Cl)Cl)c1ccccc1[O-].[Cu+2]` [compound 26] was tested. Which “Percentage of healthy seedlings” value [3] did it give?
A: Its value is 100%.

Q: And the “Effect Index” value [4]?
A: The value was 47.5.

Q: And the “Degree of growth inhibition” value ([12]; 0.0125 %)?
A: The value was 3.

Q: What about the “Degree of growth inhibition” value ([12]; 0.025 %) of the same molecule?
A: The value was 3.

Q: And the “Percentage of healthy seedlings” value [11]?
A: The value was 58.0%.

Q: And the Phytotoxicity (summer orange seedlings)?
A: The Phytotoxicity was “Nil”.

Q: And the minimum inhibitory concentration (Staphylococcus aureus [13])?
A: Its minimum inhibitory concentration is 5 mc g/ml.

Q: What about the minimum inhibitory concentration (Aspergillus niger [14]) of the same molecule?
A: The minimum inhibitory concentration was 10 mc g/ml.

Q: What about the minimum inhibitory concentration (Penicillium Citrinum [15]) of the same molecule?
A: Its minimum inhibitory concentration is 10 mc g/ml.

Q: And the minimum inhibitory concentration (Bacillus subtilis [16])?
A: The minimum inhibitory concentration was 5 mc g/ml.

Q: What about the minimum inhibitory concentration (Cladosporium harbarum [17]) of the same molecule?
A: Its minimum inhibitory concentration is 5 mc g/ml.

Q: What about the minimum inhibitory concentration (Escherichia coli [18]) of the same molecule?
A: The minimum inhibitory concentration was 60 mc g/ml.
